From ChEMBL document CHEMBL3393021, “Evaluation and synthesis of polar aryl- and heteroaryl spiroazetidine-piperidine acetamides as ghrelin inverse agonists” (ACS Med Chem Lett, 2015) come the findings set out here.

The nature of one series: physchem. The note with it: buffer, pH 7.4.
Series [1] can be described thus: Oral bioavailability in […] at 4 mg/kg. In kind it is ADME, organism-based, Canis lupus familiaris. The following applies: in vivo.
Series [2] in a line: Volume of distribution at steady state in […] at 1 mg/kg, iv or 4 mg/kg, po. The series is classed as ADME, organism-based, Canis lupus familiaris. The note with it: in vivo, read-out: Vdss.
Series [3] can be described thus: Toxicity in human THLE cells. The series is classed as cell-based.
The nature of series [4]: Oral bioavailability in Wistar Han rat at 5 mg/kg. The series is classed as ADME, organism-based. The following applies: in vivo.
The nature of series [5]: Oral bioavailability in […] at 5 mg/kg. In kind it is ADME, organism-based, Macaca fascicularis. The note with it: in vivo.
Series [6] can be described thus: Volume of distribution at steady state in […] at 1 mg/kg, iv or 5 mg/kg, po. In kind it is ADME, organism-based, Macaca fascicularis. The following applies: in vivo, read-out: Vdss.
Series [7] in a line: Volume of distribution at steady state in Wistar Han rat at 1 mg/kg, iv or 5 mg/kg, po. The following applies: in vivo, read-out: Vdss. In kind it is ADME, organism-based.
Series [8] in a line: Kinetic solubility in 2% sodium phosphate buffer at pH 6.5 after 24 hrs. In kind it is physicochemical. The note with it: read-out: Kinetic_solubility.

Converted amounts (≈) assume the structure as drawn. Some results are limits rather than exact numbers.

In the series “physchem”, `COc1ccc(CC(=O)N2CCC3(CC2)CN([C@@H]2CCc4cc(-c5cc(C)ncn5)ccc42)C3)nc1` gave a logD of 1.6.

Regarding `Cc1cc(-c2ccc3c(c2)CC[C@H]3N2CC3(CCN(C(=O)Cc4nn(C)c5ncccc45)CC3)C2)ncn1`, in “physchem”, the logD was found to be 2.1.

With `COc1ccc(CC(=O)N2CCC3(CC2)CN([C@@H]2CCc4cc(-c5cc(C)ncn5)ccc42)C3)c(C#N)c1`, the logD in the series “physchem” came to 2.4.

For `COc1ccc(OCC(=O)N2CCC3(CC2)CN([C@@H]2CCc4cc(-c5cc(C)ncn5)ccc42)C3)c(C#N)c1`, in the series “physchem”, the logD turned out to be 2.3.

As to `COc1ccc(CC(=O)N2CCC3(CC2)CN([C@@H]2CCc4cc(-c5cc(C)ncn5)ccc42)C3)c(C(N)=O)c1`, the bioavailability in series [1] is 67%; in series [4], 15%; in series [5], 32%. The Vd came to 7.3 L/kg in series [2], 2.2 L/kg in [6] and 8.1 L/kg in series [7]. The compound further showed an INH in series [3] greater than 248 µM. Moreover, in “physchem”, the logD came out at 1.4. Moreover, the solubility kinetic at 24 h in series [8] worked out at 185 µg/mL (≈ 352 µM).

In the series “physchem”, `COc1ccc(CCC(=O)N2CCC3(CC2)CN([C@@H]2CCc4cc(-c5cc(C)ncn5)ccc42)C3)c(C(N)=O)c1` gave a logD of 1.9.

`COc1ccc(CC(=O)N2CCC3(CC2)CN([C@@H]2CCc4cc(-c5cc(C)ncn5)ccc42)C3)c(NC(C)=O)c1` yielded a logD in the series “physchem” of 1.6.

For orientation: logD means the decadic logarithm of the distribution of all forms, ionised or not, between an organic phase and buffer at a given pH. One may read the bioavailability as dose-corrected exposure relative to a reference, in per cent.
